{"source": "patent US9944989B2", "about": "“Micrornas as new therapeutic targets for the prevention and/or treatment of retinopathy” (RUSH UNIVERSITY MEDICAL CENTER, priority 2010, dated 2018)", "key": {"NF-κB p65": {"tested_on": "NF-κB p65", "assay": "NF-κB activation by immunofluorescence of p65 subunit in rat RECs", "assay_type": "cell-based", "details": "IL-1β or TNFα 10 ng/ml, 30 minutes after treatment", "experimental": "(§1) Rat REC culture and treatment with proinflammatory factors. Rat RECs—the Transgenic-inner Blood-Retinal Barrier (Tr-iBRB) cells were kindly provided by Drs. Tetsuya Terasaki, Tohoku University, and Ken-ichi Hosoya, University of Toyama, Japan. The Tr-iBRB cells were derived from RECs of transgenic rats harboring the temperature-sensitive SV40 large T-antigen (tsA58Tg rats). At 33° C., they are immortalized and proliferate because of the expression of large T-antigen. At 37° C., they stop proliferation due to loss of large T-antigen and differentiate into authentic retinal ECs, which have spindle fiber shapes, with typical endothelial and REC-specific markers and endothelial properties and REC-specific functions. iTr-iBRB cells were expanded at 33° C. on collagen-coated (50 μg/ml) plates in complete EC culture medium (DMEM with 70 mg/L benzylpenicillin potassium, 100 mg/L streptomycin sulfate, 10% heat-inactivated FBS and endothelial-cell growth factor (ECGF) (1:100, Sigma). Glucose concentration in the medium was 5.5 mM. Approximately 100,000 cells/60 mm plate were grown in complete medium at 37° C. for 48 hours. Cells were serum starved in DMEM+0.2% FBS for 16 hours before treatment of IL-1β (10 ng/ml, Sigma), TNFα (10 ng/ml, Sigma), or NF-κB inhibitor, Bay11-7082 (3 μM. Calbiochem) for 4 or 24 hours. Subsequently, the cells were harvested for total RNA, protein lysate preparation, or immunofluorescence.\nDetection of NF-κB activation by immunofluorescence of p65 subunit. 30 min following cytokine treatment, cells were fixed with 4% paraformaldehyde for 20 min. After blocking with 10% normal donkey serum (NDS) in PBS for 1 hour at room temperature, cells were incubated with anti-p65 antibody (Santa Cruz) at 4° C. overnight. Cells were incubated in Alexa fluor-conjugated secondary antibody (1:400) in 3% NDS. Nuclei of the cells were labeled with Hoechst nuclear dye (1:500). Subsequently, the cells were observed under an Axioplan2 fluorescent microscope (Zeiss)."}, "NF-κB [1]": {"tested_on": "NF-κB", "assay": "miR-146a expression (qRT-PCR) in rat RECs (TR-iBRB2) treated with IL-1β or TNFα, with or without Bay11-7082", "assay_type": "cell-based", "details": "for miR-146a expression: rat RECs (TR-iBRB2), 10 ng/ml, four hours and 24 hours after treatment", "experimental": "In diabetic retinas, hyperglycemia-induced increased production of ROS and proinflammatory cytokines work in concert to activate NF-κB in RECs. Both IL-1β and TNF-α are shown to activate NF-κB in RECs. Upregulation of miR-146a is a result of NF-κB activation. Rat RECs (the TR-iBRB2 cells) were treated with IL-1β (10 ng/ml) and TNF-α (10 ng/ml). […] The extent of upregulation of miR-146a was further increased from 4-hour to 24-hour treatments. […] It is noteworthy that there is a moderate, but significant increased expression of miR-146a by IL-1β in the presence of Bay11-7082, compared to non-treated negative controls.\nQuantitative (q)RT-PCR. qRT-PCR analysis of miRNAs was performed using TaqMan microRNA Assays according to the manufacturer's protocol (Applied Biosystems). Approximately 8 ng of total RNA was used for each reaction. snRNA U6 was used for normalization control. qRT-PCR analysis on mRNAs of IRAK1, TRAF6, ICAM-1, and MCP-1 was performed using the QuantiTect Primer Assay with QuantiFast SYBR Green RT-PCR Kit (Qiagen, Valencia, Calif.) ˜10 ng total RNA was used in each reaction. 18S rRNA was amplified as normalization control. All data are expressed as mean±SEM. Student's t-test was used to determine significance (p<0.05).\nas §1"}, "NF-κB activation": {"tested_on": "NF-κB activation", "assay": "Thrombin-induced NF-κB downstream genes (ICAM-1, VCAM-1, MCP1) by qRT-PCR in HRECs", "assay_type": "cell-based, human", "details": "thrombin treatment", "experimental": "Thrombin-dependent NF-κB activation is mediated by the CARD10-Bc110-MALT1 signalosome. If miR-146 targets CARD10, one of the key components of the signalosome of the GPCR-mediated NF-κB activation pathway, miR-146 should have an inhibitory effect on GPCR-mediated NF-κB activation in HRECs. HRECs were transfected with miR-146a mimic or negative control oligos with scrambled sequences; 24 hour after the transfection, the cells were treated with thrombin.\nTo determine whether miR-146's inhibition on thrombin-mediated NF-κB activation is mediated by its repression on CARD10, HRECs were transfected with human CARD10-expressing constructs (Genecopoeia) before miR-146a mimic transfection and thrombin treatment.\n(§2) Cell culture and treatment. Primary Human Retinal Endothelial Cells (HRECs) (Passage 3-6) and HEK293 cells were purchased from Applied Cell Biology Res Institute (Kirkland, Wash.) and American Type Culture Collection (ATCC), respectively. HRECs were maintained in EGM2-MV media with 5% of FBS (Lonza) in flasks coated with attachment factor (Invitrogen) or plates coated with fibronectin (Sigma). For thrombin treatment, HRECs were serum starved in EGM2-MV media with 1% FBS overnight, and then treated with thrombin (5 U/ml) (Sigma. Cat. T4393) for 5-8 hours, followed by RNA harvesting, leukocyte adhesion and other assays; for IL-1β treatment, after overnight serum starvation, HRECs was incubated with 10 ng/ml IL-1β (Sigma) for 4 hours. When NF-κB specific inhibitor Bay11-7082 was used, HRECs was incubated with Bay11-7082 (3 μM) (Sigma) for 30 minutes prior to treatment with either thrombin or IL-1β.\nmiR-146a mimic, anti-miR-146a and plasmid transfection. […]\nRNA preparation and quantitative RT-PCR. Total RNA was prepared using miRVana miRNA isolation kit (Ambion) (Kovacs et al., 2011). qRT-PCR of miRNAs was performed using TaqMan microRNA Assays (Applied Biosystems), with snRNA U6 as normalization control. qRT-PCR of mRNAs of was performed using QuantiTect Primer Assays and QuantiFast SYBR Green RT-PCR Kit (Qiagen), with 18s rRNA as normalization control. […]"}, "HRECs": {"tested_on": "HRECs", "assay": "Leukocyte adhesion to HRECs", "assay_type": "cell-based, human", "details": "scrambled control-treated HRECs, thrombin treatment", "experimental": "Leukocyte adhesion to HRECs. Leukocyte adhesion assays were performed (Huang et al., 2007; O'Donnell, 2011) with minor modifications. Briefly, blood from healthy human volunteers was collected according to a approved IRB protocol to isolate leukocytes. Leukocytes were labeled with 5 μM Calcein/acetomethoxy (AM) (Invitrogen). HRECs were transfected with miR-146a mimics or negative control oligo duplex with scrambled sequences for 48 hours before thrombin treatment (5 U/ml). Eight hours after thrombin treatment, 10^5 calcein-labeled leukocytes were added onto the HREC monolayer and incubated for 2 hours at 37 C. Subsequently, the cells were gently rinsed with PBS to wash off leukocytes unattached to HRECs; the number of Calcein-AM labeled neutrophils attached to HRECs were counted by fluorescence microscopy. In addition, the fluorescence from the adherent leukocytes on HRECs was measured with a Cytofluor plate reader (PreSeptive Biosystems)."}, "NF-κB [2]": {"tested_on": "NF-κB", "assay": "Thrombin-induced miR-146a/b expression (qRT-PCR) in HRECs, with or without Bay11-7082", "assay_type": "cell-based, human", "text": "miR-146 is a NF-κB-responsive miRNA, and can be induced by IL-1R/TLR mediated NF-κB activation. GPCR-mediated NF-κB activation also induces the expression of miR-146.\nUpregulation of miR-146a/b by thrombin treatment is a result of NF-κB activation.\nas §2\nRNA preparation and quantitative RT-PCR. Total RNA was prepared using miRVana miRNA isolation kit (Ambion) (Kovacs et al., 2011). qRT-PCR of miRNAs was performed using TaqMan microRNA Assays (Applied Biosystems), with snRNA U6 as normalization control. qRT-PCR of mRNAs of was performed using QuantiTect Primer Assays and QuantiFast SYBR Green RT-PCR Kit (Qiagen), with 18s rRNA as normalization control. Two tailed t test was used to determine significance of differences."}, "miRNAs in the vitreous": {"tested_on": "miRNAs in the vitreous", "assay": "miRNA expression profiling (TaqMan rodent miRNA microarray) of the vitreous of STZ-induced diabetic and normal control rats", "parameters": "species or system rat", "details": "two weeks after the onset of diabetes, average delta Ct", "experimental": "Isolation of vitreous RNA from STZ-induced diabetic and normal control rats: 2 weeks after STZ-induced diabetes, 3 diabetic and 3 normal control rats were sacrificed and their eyeballs harvested. In cold PBS, the eyeballs were dissected to collect the vitreous bodies, the retinas and the lens, total RNA was prepared using the mirVana miRNA isolation kit (Ambion). The yield of total RNA from vitreous body was ˜764 ng and 1125 ng total RNA/vitreous of control and diabetic rats, respectively. […]\nmiRNA microarray assays and data analyses. […] Three independent sets of miRNA profiling were performed for each experimental condition Amplification data were created by the SDS2.3 program (Applied Biosystems) and further analyzed using RQ Manager software (Applied Biosystems) and StatMiner v. […] There were three replicate assays for each miRNA on the array. miRNAs with Ct<40 in at least two out of the three replicates were accepted as “detected”. […] Normalized expression level of each miRNA was calculated as DCt or ΔCt=Ct(miRNA)-Ct(snRNA U6). The average DCt from three microarray assays was calculated as the relative expression level of each miRNA. The differential expression of each miRNA from samples of diabetic rats and normal controls was calculated as: DDCt or Δ(ΔCt)=Ave DCt (diabetic)—Ave DCt (control). Fold of change was calculated as 2^−Δ(ΔCt). […]"}, "[3]": {"tested_on": "human retinal endothelial cells (HRECs)", "assay": "Transendothelial electrical resistance (TEER) assay in HRECs", "assay_type": "cell-based", "experimental": "Transendothelial electrical resistance assay: ECs are grown as a monolayer on small gold electrodes. The transendothelial electrical resistance, which reflects endothelial barrier function and permeability, is measured using the Electric Cell-Substrate Impedance Sensor (ECIS) system.\nTransendothelial electrical resistance (TEER) assay. HRECs were plated and grew as a monolayer on fibronectin-coated Electric Cell-Substrate Impedance Sensor (ECIS) electrode arrays (Applied Biophysics). 24 hours after transfection with miR-146a mimics, or negative control oligo duplex with scrambled sequences, the cells were treated with IL-1β (10 ng/ml). TEER was recorded for 20 hours before and 24 hours after addition of IL-1β using the ECIS system (Applied Biophysics) (Qiao et al., 2003, 2006; Lum et al., 2003, 2001). When Bay11-7082 was used, HRECs was incubated with Bay11-7082 ([…]) (Sigma) for 30 minutes prior to IL-1β treatment."}, "[4]": {"details": "HRECs treated with scrambled oligo"}, "[5]": {"details": "Bay11-7082 3 μM for 30 minutes prior to thrombin"}}, "data": [{"compound": "TNF-α", "values": [{"measurement": "NF-κB activation (nuclear translocation of p65)", "setting": "NF-κB p65", "result": "activated NF-κb"}, {"measurement": "miR-146a expression", "setting": "NF-κB [1]", "result": "significantly upregulated"}]}, {"compound": "thrombin", "values": [{"measurement": "induction of ICAM-1", "setting": "NF-κB activation; [4]", "result": "~17", "unit": "fold"}, {"measurement": "induction of VCAM-1", "setting": "NF-κB activation; [4]", "result": "~95", "unit": "fold"}, {"measurement": "NF-κB downstream genes ICAM1, MCP1 and VCAM1", "setting": "NF-κB activation; HRECs", "result": "significantly upregulated"}, {"measurement": "leukocyte adhesion", "setting": "HRECs", "result": "significantly increased"}, {"measurement": "upregulation of miR-146a", "setting": "NF-κB [2]; thrombin treatment", "result": 122, "unit": "%"}, {"measurement": "upregulation of miR-146b", "setting": "NF-κB [2]; thrombin treatment", "result": 92, "unit": "%"}]}, {"compound": "mmu-miR-30c (UGUAAACAUCCUACACUCUCAGC; chemistry not fully specified)", "values": [{"measurement": "AVE DCt (STZ)", "setting": "miRNAs in the vitreous", "result": 2.37}]}, {"compound": "Cc1ccc(S(=O)(=O)/C=C/C#N)cc1", "note": "[Bay11-7082]", "values": [{"measurement": "NF-κB activation (nuclear translocation of p65)", "setting": "NF-κB p65", "result": "failed to activate NF-κB"}, {"measurement": "decrease of IL-1β-induced upregulation of miR-146a", "setting": "NF-κB [1]; rat RECs, IL-1β 10 ng/ml, simultaneous Bay11-7082", "result": "~81", "unit": "%"}, {"measurement": "TNF-α-induced upregulation of miR-146a", "setting": "NF-κB [1]; rat RECs, TNF-α 10 ng/ml, simultaneous Bay11-7082", "result": "completely blocked"}, {"measurement": "inhibition of thrombin-induced miR-146b upregulation", "setting": "NF-κB [2]; [5]", "result": "at least 33%"}, {"measurement": "thrombin-induced upregulation of miR-146a", "setting": "NF-κB [2]; [5]", "result": "completely blocked"}, {"measurement": "IL-1β-induced decrease of TEER", "setting": "[3]; IL-1β 10 ng/ml", "result": "prevented"}]}, {"compound": "IL-1β: proinflammatory cytokine used at 10 ng/ml to activate NF-κB", "values": [{"measurement": "NF-κB activation (nuclear translocation of p65)", "setting": "NF-κB p65", "result": "activated NF-κb"}, {"measurement": "miR-146a expression", "setting": "NF-κB [1]", "result": "significantly upregulated"}, {"measurement": "TEER", "setting": "[3]; IL-1β treatment", "result": "significant decrease"}]}]}
